Among the data in ChEMBL document CHEMBL2311446, “Hybrid fluorescent conjugates of COX-2 inhibitors: search for a COX-2 isozyme imaging cancer biomarker” (Bioorg Med Chem Lett, 2013) are Drug uptake and IC50 values, retold here.

Tested on in the first data set: not listed separately
Nature of the data set: Drug uptake in human HCA-7 cells overexpressing COX2 assessed as fluorescence at 10 uM after 1 hr by confocal laser scanning microscopic analysis. Format: ADME, cell-based. As to conditions: hca-7, 1 h; call rule not given here.
`CCN(CC)c1ccc2c(-c3ccccc3C(=O)O)c3ccc(=[N+](CC)CC)cc-3oc2c1` [RHODAMINE B]: the Drug uptake entry is recorded as “Not Active”.

In the next data set the target is T1, Prostaglandin G/H synthase 1 (Ovis aries, UniProt P05979).
T1 sequence (P05979 whole entry): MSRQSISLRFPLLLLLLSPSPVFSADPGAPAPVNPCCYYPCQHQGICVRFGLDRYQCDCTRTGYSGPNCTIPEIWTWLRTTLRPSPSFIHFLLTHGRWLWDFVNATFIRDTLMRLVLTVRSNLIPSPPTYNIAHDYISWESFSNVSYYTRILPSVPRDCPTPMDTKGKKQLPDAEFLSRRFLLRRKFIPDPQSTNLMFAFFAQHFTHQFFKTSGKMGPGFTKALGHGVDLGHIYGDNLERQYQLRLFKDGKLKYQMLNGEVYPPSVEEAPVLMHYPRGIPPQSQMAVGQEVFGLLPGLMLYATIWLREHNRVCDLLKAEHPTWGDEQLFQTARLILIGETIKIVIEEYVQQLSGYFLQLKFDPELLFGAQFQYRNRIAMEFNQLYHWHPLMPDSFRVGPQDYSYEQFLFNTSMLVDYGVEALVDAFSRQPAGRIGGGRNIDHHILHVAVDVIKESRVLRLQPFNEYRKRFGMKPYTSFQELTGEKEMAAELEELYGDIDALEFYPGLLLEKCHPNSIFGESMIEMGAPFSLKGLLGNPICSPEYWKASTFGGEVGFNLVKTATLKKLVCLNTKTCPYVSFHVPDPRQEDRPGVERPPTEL
Kind of data set: Inhibition of ovine COX1.
Details: not given
As to `CCN(CC)c1ccc2c(c1)Oc1cc(N(CC)CC)ccc1C21c2ccccc2C(=O)N1CCNS(=O)(=O)c1ccc(-n2nc(C(F)(F)F)cc2-c2ccc(C)cc2)cc1`, the IC50 (commonly the concentration that gives 50% inhibition) was over 100 µM.

Consider `COc1ccc2cc([C@H](C)C(=O)OCCn3c4ccccc4c(=O)c4ccccc43)ccc2c1`, for which half-maximal inhibition (IC50) was put at 30.3 µM.

`CC(C)Cc1ccc(C(C)C(=O)n2c3ccccc3c(=O)c3ccccc32)cc1` (stereo unspecified) had an IC50 of 51.5 µM.

Take `CC(C)Cc1ccc(C(C)C(=O)OCCNS(=O)(=O)c2cccc3c(N(C)C)cccc23)cc1` (stereo unspecified): the IC50 is over 100 µM.

In turn, `O=c1c2ccccc2n(CCOS(=O)(=O)c2ccc(C(F)(F)F)cc2)c2ccccc12` came in with an IC50 of 88.1 µM.

Turning to `CC(C)Cc1ccc(C(C)C(=O)OCCn2c3ccccc3c(=O)c3ccccc32)cc1` (stereo unspecified), half-maximal inhibition (IC50) was put at 74.1 µM.

The compound `COc1ccc2cc([C@H](C)C(=O)n3c4ccccc4c(=O)c4ccccc43)ccc2c1` showed an IC50 of 18 µM.

Regarding `Cc1ccc(-c2cc(C(F)(F)F)nn2-c2ccc(S(=O)(=O)NCCNS(=O)(=O)c3cccc4c(N(C)C)cccc34)cc2)cc1`, the IC50 was over 100 µM.

The compound `CC(=O)Oc1ccccc1C(=O)OCCn1c2ccccc2c(=O)c2ccccc21` displayed an IC50 of 39.4 µM.

`CN(C)c1cccc2c(S(=O)(=O)NCCNS(=O)(=O)c3ccc(C4=C(c5ccc(Cl)cc5)C(=O)OC4)cc3)cccc12` returned an IC50 of over 100 µM.
